# Where a name gives a salt, the structure may show the parent alone. Read-outs that look alike come from different tables or passages of the source.
# Columns and labels:
# PDK1 = PDK1 (Homo sapiens (Human), UniProt O15530); experiment: PDK1 kinase assay (coupled PDK1/AKT/FAM-crosstide assay, IMAP fluorescence polarization); format: biochemical
# Outline: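 GST-tagged human PDK1 (aa 51-359, 0.75 nM) from insect cells activated unphosphorylated GST-AKT2 (aa 140-467–PIFtide fusion, 10 nM), which phosphorylated 100 nM FAM-crosstide; 40 μM ATP, pH 7.2 Tris/MgCl2, 30 min at 25° C. IMAP fluorescence polarization read-out; ΔmP versus compound concentration fitted with a 4-parameter curve.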
# [1] = test system: phospho-akt (Thr308) in PC-3 cells; experiment: Inhibition of phospho-akt (Thr308) in PC-3 cells, MSD phospho-akt 308 ELISA kit; format: cell-based; settings: Homo sapiens, 2 hours, no serum, read-out: EC50
# Outline: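 Serum-free 2 h compound exposure of overnight-seeded PC-3 cells, threefold dilution series; lysates analysed on blocked MSD plates (3% BSA) for Thr308-phosphorylated Akt, normalised between DMSO and 5 μM wortmannin wells.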
# [2] = inhibition of P308 Akt in PC-3 cells using MSD
# [3] = inhibition of phospo-PDK1 in vitro
# [4] = inhibition of P308 Akt in PC-3 cells, MSD
# Chain of PDK1 (O15530 51-359): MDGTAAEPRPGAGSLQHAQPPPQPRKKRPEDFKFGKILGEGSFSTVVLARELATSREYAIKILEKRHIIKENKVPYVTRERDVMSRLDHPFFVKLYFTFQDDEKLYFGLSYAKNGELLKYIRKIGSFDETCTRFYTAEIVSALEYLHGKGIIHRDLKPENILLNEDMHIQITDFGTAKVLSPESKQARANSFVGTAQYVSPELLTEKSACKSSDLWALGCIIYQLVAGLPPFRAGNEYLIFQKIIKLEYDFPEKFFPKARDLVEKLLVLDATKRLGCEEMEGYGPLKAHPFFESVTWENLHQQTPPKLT
IC50 (PDK1; inhibition of PDK1 in vitro) [µM],"EC50 [1, 2] [µM]",IC50 (PDK1; [3]) [µM],"EC50 [1, 4] [µM]",Compound
> 5,> 10,,,"C[C@H](NC(=O)c1cc(C#N)cnc1NCc1ccc(-c2ccc(NCCN(C)C)nc2)cc1)c1ccc(F)cc1 [Example 224, 5-Cyano-2-{4-[6-(2-dimethylamino-ethylamino)-pyridin-3-yl]-benzylamino}-N-[(S)-1-(4-fluoro-phenyl)-ethyl]-nicotinamide]"
< 0.1,< 1,,,"C[C@H](NC(=O)c1cc(C#N)cnc1N[C@H](C)c1ccc(-c2cn(C)c3ncnc(N)c23)cc1)c1ccc(F)cc1 [Example 434, 2-{(R)-1-[4-(4-Amino-7-methyl-7H-pyrrolo[2,3-d]pyrimidin-5-yl)-phenyl]-ethylamino}-5-cyano-N-[(S)-1-(4-fluoro-phenyl)-ethyl]-nicotinamide]"
< 0.1,1 to 10,,,"C[C@H](NC(=O)c1cc(C#N)cnc1NCc1ccc(-c2ccc3c(N)ncnn23)cc1)c1ccc(F)cc1 [Example 178, 2-[4-(4-Amino-pyrrolo [2,1-f][1,2,4]triazin-7-yl)-benzylamino]-5-cyano-N-[(S)-1-(4-fluoro-phenyl)-ethyl]-nicotinamide]"
,,1 to 5,1 to 10,"CCCc1cnc(NCc2ccc(-c3ccc4ncnc(N)c4c3)s2)c(C(=O)NCc2ccc(F)c(F)c2)n1 [Ex. 10.7, 3-({[5-(4-aminoquinazolin-6-yl)thiophen-2-yl]methyl}amino)-N-(3,4-difluorobenzyl)-6-propylpyrazine-2-carboxamide]"
< 0.1,< 1,,,C[C@H](NC(=O)c1cc(C#N)cnc1NCc1ccc(-c2cnc(N)c(N3CCC[C@H](N)C3)n2)cc1)c1ccc(F)cc1 [Example 197]
< 0.1,< 1,,,"CC(N)CCc1nc(-c2ccc(CNc3ncc(C#N)nc3C(=O)N[C@@H](C)c3ccc(F)c(F)c3)cc2)cnc1N (stereo partly drawn) [Example 87, 3-{4-[5-Amino-6-(3-amino-butyl)-pyrazin-2-yl]-benzylamino}-6-cyano-pyrazine-2-carboxylic acid [(S)-1-(3,4-difluoro-phenyl)-ethyl]-amide]"
,,< 0.1,< 1,"C[C@H](NC(=O)c1cc(C#N)cnc1NCc1ccc(-c2ccc3ncc4ncn(C)c4c3c2)s1)c1ccc(F)cc1 [Example 2.28, (S)-5-cyano-N-(1-(4-fluorophenyl)ethyl)-2-(((5-(1-methyl-1H-imidazo[4,5-c]quinolin-8-yl)thiophen-2-yl)methyl)amino) nicotinamide]"
> 5,1 to 10,,,"C[C@H](NC(=O)c1cc(C#N)cnc1NCc1ccc(-c2ccnc(N)n2)cc1)c1ccc(F)cc1 [Example 117, (S)-2-(4-(2-amino-pyrimidin-4-yl)benzylamino)-5-cyano-N-(1-(4-fluorophenyl)ethyl) nicotinamide]"
,,< 0.1,< 1,"Cc1nc(C)c(/C=C2\C(=O)Nc3cc(/C=C/CNc4ncccc4C(=O)NCc4ccc(F)c(F)c4)ccc32)[nH]1 [Example 15.14, N-(3,4-Difluoro-benzyl)-2-((E)-3-{3-[1-(2,5-dimethyl-3H-imidazol-4-yl)-meth-(Z)-ylidene]-2-oxo-2,3-dihydro-1H-indol-6-yl}-allylamino)-nicotinamide]"
< 0.1,< 1,,,"C[C@H](NC(=O)c1cc(C#N)cnc1NCc1ccc(-c2cnc3[nH]cnc3c2)cc1)c1ccc(F)cc1 [Example 135, (S)-2-(4-(3H-imidazo [4,5-b]pyridin-6-yl)benzylamino)-5-cyano-N-(1-(4-fluorophenyl)ethyl)nicotinamide]"
,,> 5,1 to 10,"Nc1ncnc2ccc(-c3ccc(CNc4ncccc4C(=O)NCCN4CCCC4)s3)cc12 [Example 3.36, 2-({[5-(4-aminoquinazolin-6-yl)thiophen-2-yl]methyl}amino)-N-[2-(pyrrolidin-1-yl)ethyl] pyridine-3-carboxamide (TFA salt)]"
< 0.1,< 1,,,"Nc1cnc(-c2ccc(CNc3ncc(C(F)(F)F)cc3C(=O)NCc3ccc(F)c(F)c3)cc2)cn1 [Example 124, 2-(4-(5-aminopyrazin-2-yl)benzylamino)-N-(3,4-difluorobenzyl)-5-(trifluoromethyl) nicotinamide]"
> 5,> 10,,,"C[C@H](NC(=O)c1cc(C#N)cnc1NCc1ccc(-c2ncnc(N)c2F)cc1)c1ccc(F)cc1 [Example 101, (S)-2-(4-(6-amino-5-fluoropyrimidin-4-yl)-benzylamino)-5-cyano-N-(1-(4-fluorophenyl)ethyl)nicotinamide]"
,,0.1 to 1,> 10,"COc1ccnc(NCc2ccc(-c3ccc4ncnc(N)c4c3)s2)c1C(=O)NCc1ccc(F)c(F)c1 [Ex. 7.4, 2-({[5-(4-aminoquinazolin-6-yl)thiophen-2-yl]methyl}amino)-N-(3,4-difluorobenzyl)-4-methoxypyridine-3-carboxamide]"
,,0.1 to 1,< 1,"C[C@H](NC(=O)c1cc(C(F)(F)F)cnc1NC/C=C/c1ccc2c(c1)NC(=O)/C2=C\c1cnc[nH]1)c1ccc(F)c(F)c1 [Example 15.2, 2-((E)-3-((Z)-3-((1H-imidazol-5-yl)methylene)-2-oxoindolin-6-yl)allylamino)-N-((S)-1-(3,4-difluorophenyl)ethyl)-5-(trifluoromethyl)nicotinamide]"
,,< 0.1,< 1,"O=C(NCc1ccc(F)c(F)c1)c1cccnc1NCc1ccc(-c2cnc3[nH]ncc3c2)cc1 [Example 2.35, 2-(4-(1H-pyrazolo[3,4-b]pyridin-5-yl)benzylamino)-N-(3,4-difluorobenzyl)nicotinamide]"
,,0.1 to 1,1 to 10,"O=C(NCc1ccc(F)c(F)c1)c1cccnc1NCc1ccc(-c2ccc3ncnc(NCC(F)(F)F)c3c2)s1 [Example 4.22, N-(3,4-difluorobenzyl)-2-(((5-(4-(2,2,2-trifluoroethylamino)quinazolin-6-yl)thiophen-2-yl)methyl)amino)nicotinamide]"
1 to 5,> 10,,,"CN1CCN(Cc2ccc(NC(=O)c3cc(C(F)(F)F)cnc3NCc3ccc(-c4cnc5[nH]nc(N)c5c4)cc3)cc2)CC1 [Example 285, 2-(4-(3-amino-1H-pyrazolo [3,4-b]pyridin-5-yl)benzylamino)-N-(4-((4-methylpiperazin-1-yl)methyl)phenyl)-5-(trifluoromethyl)nicotinamide]"
< 0.1,< 1,,,"CNc1n[nH]c2ncc(-c3ccc(CNc4ncc(C#N)nc4C(=O)N[C@@H](C)c4ccc(F)c(F)c4)cc3)cc12 [Example 52, (S)-6-cyano-N-(1-(3,4-difluorophenyl)ethyl)-3-(4-(3-(methylamino)-1H-pyrazolo[3,4-b]pyridin-5-yl)benzylamino)pyrazine-2-carboxamide]"
,,> 5,> 10,"O=C(c1cccnc1NCc1cccc(-c2c[nH]c3ncccc23)c1)N1CCCCC1 [Example 1.13, Piperidin-1-yl(2-{[3-(1H-pyrrolo [2,3-b]pyridin-3-yl)benzyl]amino}pyridin-3-yl)methanone]"
,,> 5,> 10,"C[C@H](NC(=O)c1cccnc1NCCOc1ccc2cc[nH]c2c1)c1ccc(F)c(F)c1 [Example 19.1, (S)-2-(2-(1H-indol-6-yloxy)ethylamino)-N-(1-(3,4-difluorophenyl)ethyl)nicotinamide]"
,,1 to 5,> 10,"Nc1ncnc2ccc(-c3ccc(CNc4ncccc4C(=O)NCc4ccccn4)s3)cc12 [Example 3.25, 2-({[5-(4-aminoquinazolin-6-yl)thiophen-2-yl]methyl}amino)-N-(pyridin-2-ylmethyl)pyridine-3-carboxamide (TFA salt)]"
< 0.1,< 1,,,"Nc1ncnc2[nH]cc(-c3ccc(CNc4ncc(C(F)(F)F)cc4C(=O)NCc4ccc(F)c(F)c4)cc3)c12 [Example 330, 2-[4-(4-Amino-7H-pyrrolo [2,3-d]pyrimidin-5-yl)-benzylamino]-N-(3,4-difluoro-benzyl)-5-trifluoromethyl-nicotinamide]"
,,< 0.1,> 10,"Nc1ncnc2ccc(-c3ccc(CNc4ncc(C(F)(F)F)nc4C(=O)NCc4ccc(F)c(F)c4)s3)cc12 [Example 10.10, 3-(((5-(4-aminoquinazolin-6-yl)thiophen-2-yl)methyl)amino)-N-(3,4-difluorobenzyl)-6-(trifluoromethyl)pyrazine-2-carboxamide]"

# From US10030016B2 (Sunesis Pharmaceuticals, Inc., priority 2009, dated 2018)
